# Measurements from patent US12344584B2, “KCNQ potentiators” (Eli Lilly and Company, priority 2019, dated 2025).
# System: peripheral axons
# Test: Threshold tracking of peripheral nerve excitability in anesthetized rats
# Format: in vivo
# Conditions: rat
# Experimental: Threshold Tracking to Measure the Effects of Example 1 at 3.10 and 30 mg/kg IP on Peripheral Nerve Excitability
# Threshold tracking is a non-invasive technique that allows measurement of the excitability properties of peripheral axons by providing information about their membrane potential and ion channel function.
# 16 male Wistar rats from Charles River, weighing between 307-446 g ware used. Animals are group housed with standard housing conditions (4 per cage, 07:00 h to 19:00 h light phase, constant temperature (21° C.) and humidity, and free access to food and water, as well as environmental enrichment).
# Rats are anesthetized with isoflurane (2-2.5%, O2 at 0.5 L/min) and then placed on their back on a heating pad to keep the tail temperature above 32° C. The placement of the ring electrodes are marked out and the marked sections of the tail are scraped with a blade to remove hair and the top layer of skin. The sites are cleaned with water and dried, allowing fora good conduction between the skin and the sticky electrodes.
# A sticky ring stimulating electrode (+ve anode) is wrapped around the foot. A second sticky ring stimulating electrode (−ve cathode) is wrapped 1.5 cm from the base of the tail. A needle recording electrode is placed just off center on the top of the tail, 6 cm distal to the stimulating cathode at the base of the tail. A needle reference electrode is placed just off center on the top of the tail, 2 cm distal to the recording electrode. A sticky ground electrode is wrapped around the tail 2 cm proximal from the recording electrode.
# • Start the Multitrack program (description below) and Spike. • Record 15 min of stable baseline • After the 15 min, dose with Example 1 or HEC • Take blood spot for PK at the following: • 10 min post dose • 20 min post dose • 30 min post dose • 40 min post dose • 45 min after IP (intraperitoneal) dosing with Example 1, dose XE-991 (XE-991 is a commercially available compound that blocks KCNQ potentiator effects in a formalin assay in vivo—see Y. Zheng, et al., “Activation of peripheral KCNQ channels relieves gout pain,” Pain, 156 (2015) 1025-1035; and R. Zaczek, et al., “Two New Potent Neurotransmitter Release Enhancers, 10,10-Bis(4-Pyridinylmethyl)-9(10H)-Anthracenone and 10,10-Bis(2-Fluoro-4-Pyridinylmethyl)-9(10H)-Anthracenone: Comparison to Linopirdine” The Journal of Pharmacology and Experimental Therapeutics, 285:724-730, 1998. • (XE-991 is only dosed after Example 1 at 30 mg/kg) • Take blood spot for PK at the following: • 10 min post dose (55 min post Example 1 administration) • 20 min post dose (65 min post Example 1 administration) • 30 min post dose (75 min post Example 1 administration) • 40 min post dose (85 min post Example 1 administration)
# In threshold tracking assay to measure the excitability properties of peripheral axons studies in rat, compound is administered by IP at 3, 10 or 30 mg/kg using 1% hydroxyethylcellulose: 0.25% polysorbate 80:0.05% antifoam:purified water (HEC) formulation. Dry blood spots (DBS) are collected around 10, 20, 30 and terminal 40 min post-dose. DBS samples are dried at RT for around 2 h. Brain samples are obtained at terminal time point and frozen until analysis. DBS samples are shipped and stored at RT.
structure (smiles),measurement,setting,value
"CC(C)(C)[C@H](O)CNC(=O)NCc1ccnc(OCC(F)(F)F)c1 [Example 1, 1-[(2S)-2-hydroxy-3,3-dimethyl-butyl]-3-[[2-(2,2,2-trifluoroethoxy)-4-pyridyl]methyl]urea]",Threshold Tracking absolute threshold for 40% CMAP (±SEM),3 mg/kg (IP),121 (±10) % baseline
same,Threshold Tracking absolute threshold for 40% CMAP (±SEM),10 mg/kg (IP),140 (±8) % baseline
same,Threshold Tracking absolute threshold for 40% CMAP (±SEM),30 mg/kg (IP),160 (±18) % baseline
same,absolute threshold compared with vehicle,"30 mg/kg IP, Bonferroni multiple comparisons test",significantly increased absolute threshold
